Among the data in ChEMBL document CHEMBL1135459, “Novel class of potent 4-arylalkyl substituted 3-isoxazolol GABA(A) antagonists: synthesis, pharmacology, and molecular modeling” (J Med Chem, 2002) are IC50, ED50 and Ki values, retold here.

Test [1] has as its target Gamma-aminobutyric acid type B receptor subunit 1 (Rattus norvegicus, UniProt Q9Z0U4). The test can be described thus: Affinity for GABA-B receptor by inhibiting GABA uptake into rat brain synaptosomes. It is filed as subcellular.
The species named for test [2] is Mus musculus. Briefly: Electrophysiology using Whole-cell patch-clamp recordings in mouse embryos. In kind it is functional, organism-based.
Test [3] deals with Mus musculus. The test can be described thus: Convulsant effect in mice after subcutaneous (sc) administration. It is filed as functional.
Test [4] deals with Mus musculus. Briefly: Convulsant effect in mice after intracerebroventricular (icv) administration. It is filed as functional. Particulars: central.
The target in test [5] is GABA-A receptor; anion channel. The test can be described thus: Affinity for GABA-A receptor alpha by inhibiting binding of [3H]muscimol to rat brain synaptosomes. It is filed as subcellular.

Gamma-aminobutyric acid type B receptor subunit 1, sequence (Q9Z0U4 whole entry): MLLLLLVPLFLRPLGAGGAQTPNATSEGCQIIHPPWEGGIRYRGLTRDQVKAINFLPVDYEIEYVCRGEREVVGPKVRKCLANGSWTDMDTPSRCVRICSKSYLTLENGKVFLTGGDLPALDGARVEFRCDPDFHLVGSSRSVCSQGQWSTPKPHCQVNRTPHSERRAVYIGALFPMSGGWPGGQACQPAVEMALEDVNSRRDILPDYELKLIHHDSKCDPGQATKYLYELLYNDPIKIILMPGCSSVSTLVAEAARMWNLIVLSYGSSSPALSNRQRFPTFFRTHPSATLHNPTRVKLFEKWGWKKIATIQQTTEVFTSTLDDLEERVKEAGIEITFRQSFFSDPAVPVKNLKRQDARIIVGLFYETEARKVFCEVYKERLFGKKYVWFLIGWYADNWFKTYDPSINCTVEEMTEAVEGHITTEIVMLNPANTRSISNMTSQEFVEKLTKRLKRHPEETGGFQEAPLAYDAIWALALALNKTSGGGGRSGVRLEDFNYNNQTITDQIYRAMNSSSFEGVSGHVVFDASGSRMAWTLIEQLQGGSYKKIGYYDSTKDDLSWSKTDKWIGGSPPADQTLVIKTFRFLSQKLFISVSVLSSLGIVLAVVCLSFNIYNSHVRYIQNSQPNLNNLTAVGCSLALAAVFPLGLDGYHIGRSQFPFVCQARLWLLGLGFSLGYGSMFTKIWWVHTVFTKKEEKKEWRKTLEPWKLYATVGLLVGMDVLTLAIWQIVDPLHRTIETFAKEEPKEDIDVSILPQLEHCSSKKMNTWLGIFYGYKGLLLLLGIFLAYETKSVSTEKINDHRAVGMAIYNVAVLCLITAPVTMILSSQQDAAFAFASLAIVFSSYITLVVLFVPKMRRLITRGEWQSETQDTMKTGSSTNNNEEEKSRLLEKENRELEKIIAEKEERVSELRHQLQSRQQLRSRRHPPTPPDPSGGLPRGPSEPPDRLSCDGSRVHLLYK

As a reminder, the IC50 is the concentration that inhibits the measured activity by half. The term ED50 denotes the dose at which the effect has come halfway, by size or by number of responders. For `Oc1noc(C2CCNCC2)c1Cc1ccc2ccccc2c1`, the values for the IC50 (in test [1]; in the test listed under Mus musculus [2]) were above 10 µM and 0.37 µM, respectively. In addition, the ED50 with Mus musculus [3] was above 51 µmol/kg; with Mus musculus [4], 0.024 µmol/kg.

In general, Ki refers to a dissociation constant, usually derived from enzyme kinetics or from competition with a known ligand. On to `Oc1noc(C2CCNCC2)c1CCCc1ccccc1`, for which the IC50 in test [1] is above 100 µM; in the test filed under Mus musculus [2], 0.53 µM. The same compound yielded a Ki in test [5] of 1.1 µM.

As to `CCCCc1c(O)noc1C1CCNCC1`, the IC50 was above 100 µM in test [1] and 3 µM in the test listed under Mus musculus [2].

For the compound `Oc1noc(C2CCNCC2)c1CCc1ccccc1`, the figures for the IC50 (in test [1]; in the test listed under Mus musculus [2]) were above 10 µM and 4.1 µM, respectively. This compound came in with an inhibitory constant (Ki) in test [5] of 5 µM.

In the case of `CCCc1c(O)noc1C1CCNCC1`, the IC50 in test [1] is above 100 µM; in the test filed under Mus musculus [2], 4.6 µM. In test [5], this compound had a Ki of 6.6 µM.

Turning to `Oc1noc(C2CCNCC2)c1Cc1ccccc1`, the IC50 in test [1] is above 100 µM; in the test filed under Mus musculus [2], 4 µM.

As for `Oc1noc(C2CCNCC2)c1Cc1c2ccccc2cc2ccccc12`, the IC50 is above 10 µM in test [1] and 1.3 µM in the test filed under Mus musculus [2].

For the compound `CCc1c(O)noc1C1CCNCC1`, the half-inhibitory concentration (IC50) in test [1] is above 100 µM; in the test filed under Mus musculus [2], 10.3 µM.

On to `CCCCCCc1c(O)noc1C1CCNCC1`, for which the IC50 in test [1] is above 100 µM; in the test listed under Mus musculus [2], 1.1 µM. Besides, the Ki in test [5] was determined as 4.5 µM.

The compound `CC1(c2cc(O)no2)CCNCC1` registered an IC50 in test [1] above 100 µM. The compound also returned a Ki in test [5] of 37 µM.

`Oc1noc(C2CCNCC2)c1Cc1ccc(-c2ccccc2)cc1`: the half-maximal inhibitory concentration (IC50) in test [1] was above 10 µM; in the test filed under Mus musculus [2] it was 0.71 µM. The compound further showed a Ki in test [5] of 0.4 µM.

Regarding `Oc1noc(C2CCNCC2)c1Cc1cccc2ccccc12`, the IC50 was above 10 µM in test [1] and 0.48 µM in the test filed under Mus musculus [2]. The affinity in test [5] corresponds to a Ki of 0.1 µM.

Consider `Oc1noc(C2CCNCC2)c1CCC(c1ccccc1)c1ccccc1`, for which the IC50 was above 10 µM in test [1] and 0.02 µM in the test filed under Mus musculus [2]. Also, the ED50 is above 45 µmol/kg with Mus musculus [3] and 0.21 µmol/kg in the test on Mus musculus [4]. In test [5], this compound displayed an inhibition constant Ki of 0.068 µM.

As to `Oc1noc(C2CCNCC2)c1CCc1ccc2ccccc2c1`, the figures for the IC50 (in test [1]; in the test listed under Mus musculus [2]) were above 10 µM and 0.89 µM, respectively.

As to `Oc1noc(C2CCNCC2)c1CCCC(c1ccccc1)c1ccccc1`, the IC50 in test [1] is above 100 µM; in the test filed under Mus musculus [2], 0.05 µM. Further, the Ki in test [5] worked out at 0.7 µM.

Consider `Oc1noc(C2CCNCC2)c1CCc1cccc2ccccc12`, for which the IC50 in test [1] was above 10 µM; in the test listed under Mus musculus [2] it was 1.5 µM. Further, the Ki in test [5] amounted to 1.7 µM.

As to `Oc1noc(C2CCNCC2)c1CC1CCCCC1`, the concentration for half-maximal inhibition (IC50) in test [1] was above 100 µM; in the test filed under Mus musculus [2] it was 1.1 µM. In test [5], this compound had a Ki of 4.9 µM.

`Cc1c(O)noc1C1CCNCC1`: the IC50 in test [1] was above 100 µM; in the test listed under Mus musculus [2] it was 26 µM.

As for `Oc1noc(C2CCNCC2)c1CC(c1ccccc1)c1ccccc1`, the IC50 in test [1] is above 100 µM; in the test filed under Mus musculus [2], 0.81 µM. Moreover, the affinity in test [5], expressed as Ki, was 0.36 µM.

`CCCCCCCCc1c(O)noc1C1CCNCC1`: the half-maximal inhibitory concentration (IC50) in test [1] is above 100 µM; in the test filed under Mus musculus [2], 0.44 µM. The compound further displayed a Ki in test [5] of 1.8 µM.

Turning to `Oc1noc(C2CCNCC2)c1C(c1ccccc1)c1ccccc1`, the IC50 in test [1] was above 10 µM; in the test filed under Mus musculus [2], 0.78 µM. The compound further returned a Ki in test [5] of 0.96 µM.
